In patent US20120016009A1, “Optimized Methods For Delivery Of DSRNA Targeting The PCSK9 Gene” (priority 2008, published 2012):
In the oligonucleotide strings, read from the 5' end, every base follows the letter of its sugar. An asterisk marks phosphorothioate; unmarked linkages are phosphodiester. Other units and linkages are bracketed, terminal groups are in braces. A string of capitals states the bases alone. d = 2'-deoxy (DNA); m = 2'-O-methyl; r = 2'-OH (RNA)

System: PCSK9 mRNA
Assay: PCSK9 siRNA screening in HepG2 cells (lipofectamine 2000 transfection, PCSK9 mRNA by Quantigene, normalized to GAP-DH)
Type: cell-based, human
Settings: for Mean percent remaining mRNA transcript at siRNA concentration/in cell type 30 nM/HepG2: 30 nM siRNA; for Mean percent remaining mRNA transcript at siRNA concentration/in cell type 3 nM/HepG2: 3 nM siRNA
Protocol: HuH-7 cells were obtained from JCRB Cell Bank (Japanese Collection of Research Bioresources) (Shinjuku, Japan, cat. No.: JCRB0403) Cells were cultured in Dulbecco's MEM (Biochrom AG, Berlin, Germany, cat. No. F0435) supplemented to contain 10% fetal calf serum (FCS) (Biochrom AG, Berlin, Germany, cat. No. S0115), Penicillin 100 U/ml, Streptomycin 100 μg/ml (Biochrom AG, Berlin, Germany, cat. No. A2213) and 2 mM L-Glutamin (Biochrom AG, Berlin, Germany, cat. No K0282) at 37° C. in an atmosphere with 5% CO2 in a humidified incubator (Heraeus HERAcell, Kendro Laboratory Products, Langenselbold, Germany) HepG2 and HeLa cells were obtained from American Type Culture Collection (Rockville, Md., cat. No. HB-8065) and cultured in MEM (Gibco Invitrogen, Karlsruhe, Germany, cat. No. 21090-022) supplemented to contain 10% fetal calf serum (FCS) (Biochrom AG, Berlin, Germany, cat. No. S0115), Penicillin 100 U/ml, Streptomycin 100 μg/ml (Biochrom AG, Berlin, Germany, cat. No. A2213), 1× Non Essential Amino Acids (Biochrom AG, Berlin, Germany, cat. No. K-0293), and 1 mM Sodium Pyruvate (Biochrom AG, Berlin, Germany, cat. No. L-0473) at 37° C. in an atmosphere with 5% CO2 in a humidified incubator (Heraeus HERAcell, Kendro Laboratory Products, Langenselbold, Germany).
For transfection with siRNA, HuH7, HepG2, or HeLa cells were seeded at a density of 2.0×10^4 cells/well in 96-well plates and transfected directly. Transfection of siRNA (30 nM for single dose screen) was carried out with lipofectamine 2000 (Invitrogen GmbH, Karlsruhe, Germany, cat. No. 11668-019) as described by the manufacturer.
24 hours after transfection HuH7 and HepG2 cells were lysed and PCSK9 mRNA levels were quantified with the Quantigene Explore Kit (Genosprectra, Dumbarton Circle Fremont, USA, cat. No. QG-000-02) according to the protocol. PCSK9 mRNA levels were normalized to GAP-DH mRNA. For each siRNA eight individual datapoints were collected. siRNA duplexes unrelated to PCSK9 gene were used as control. The activity of a given PCSK9 specific siRNA duplex was expressed as percent PCSK9 mRNA concentration in treated cells relative to PCSK9 mRNA concentration in cells treated with the control siRNA duplex.
Tables 1b and 2b (and FIG. 6A) summarize the results and provide examples of in vitro screens in different cell lines at different doses. Silencing of PCSK9 transcript was expressed as percentage of remaining transcript at a given dose.
Very active sequences are those that have less than 60% of transcript remaining after treatment with a dose less than or equal to 100 nM. Active sequences are those that have less than 90% transcript remaining after treatment with a high dose (100 nM).

## AD-9753: PCSK9 siRNA (sense rArGrArGrAmCmUrGrAmUmCmCrAmCmUmUmCmUmCdT*dT; antisense rGrArGrArArGrUrGrGrArUmCrArGrUrCrUrCrUdT*dT)
  Mean percent remaining mRNA transcript at siRNA concentration/in cell type 30 nM/HepG2: 127%

## AD-9716: PCSK9 siRNA (sense rAmCmCrArAmCmUmUmUrGrGmCmCrGmCmUrGmUrGdT*dT; antisense mCrAmCrArGrCrGrGrCmCrArArArGrUrUrGrGrUdT*dT)
  Mean percent remaining mRNA transcript at siRNA concentration/in cell type 30 nM/HepG2: 114%

## AD-9608: PCSK9 siRNA (sense rUrGrCrUrArGrCrCrUrUrGrCrGrUrUrCrCrGrAdT*dT; antisense rUrCrGrGrArArCrGrCrArArGrGrCrUrArGrCrAdT*dT)
  Mean percent remaining mRNA transcript at siRNA concentration/in cell type 30 nM/HepG2: 37%

## AD-9546: PCSK9 siRNA (sense rUrArGrCrCrUrUrGrCrGrUrUrCrCrGrArGrGrAdT*dT; antisense rUrCrCrUrCrGrGrArArCrGrCrArArGrGrCrUrAdT*dT)
  Mean percent remaining mRNA transcript at siRNA concentration/in cell type 30 nM/HepG2: 32%

## AD-9675: PCSK9 siRNA (sense rGrGrGmCmCmCrAmCrArAmCrGmCmUmUmUmUrGrGdT*dT; antisense rCmCrArArArArGrCrGrUrUrGrUrGrGrGrCrCrCdT*dT)
  Mean percent remaining mRNA transcript at siRNA concentration/in cell type 30 nM/HepG2: 78%

## AD-9522: PCSK9 siRNA (sense rArArGrGrArGrCrArUrGrGrArArUrCrCrCrGrGdT*dT; antisense rCrCrGrGrGrArUrUrCrCrArUrGrCrUrCrCrUrUdT*dT)
  Mean percent remaining mRNA transcript at siRNA concentration/in cell type 30 nM/HepG2: 59%

## AD-9563: PCSK9 siRNA (sense rCrGrCrUrGrCrCrGrGrCrArArCrUrUrCrCrGrGdT*dT; antisense rCrCrGrGrArArGrUrUrGrCrCrGrGrCrArGrCrGdT*dT)
  Mean percent remaining mRNA transcript at siRNA concentration/in cell type 30 nM/HepG2: 103%

## AD-9603: PCSK9 siRNA (sense rUrUrUrCrUrGrGrArUrGrGrCrArUrCrUrArGrCdT*dT; antisense rGrCrUrArGrArUrGrCrCrArUrCrCrArGrArArAdT*dT)
  Mean percent remaining mRNA transcript at siRNA concentration/in cell type 30 nM/HepG2: 123%

## AD-9326: PCSK9 siRNA (sense rGrCrArCrCrCrUrCrArUrArGrGrCrCrUrGrGrAdT*dT; antisense rUrCrCrArGrGrCrCrUrArUrGrArGrGrGrUrGrCdT*dT)
  Mean percent remaining mRNA transcript at siRNA concentration/in cell type 3 nM/HepG2: 51%
  Mean percent remaining mRNA transcript at siRNA concentration/in cell type 30 nM/HepG2: 35%

## AD-9747: PCSK9 siRNA (sense mUmCmUrGrGrAmUrGrGmCrAmUmCmUrArGmCmCrAdT*dT; antisense rUrGrGrCmUrArGrArUrGrCmCrArUrCmCrArGrAdT*dT)
  Mean percent remaining mRNA transcript at siRNA concentration/in cell type 30 nM/HepG2: 63%

## AD-9560: PCSK9 siRNA (sense rGrArGrUrUrUrArUrUrCrGrGrArArArArGrCrCdT*dT; antisense rGrGrCrUrUrUrUrCrCrGrArArUrArArArCrUrCdT*dT)
  Mean percent remaining mRNA transcript at siRNA concentration/in cell type 30 nM/HepG2: 97%

## AD-9577: PCSK9 siRNA (sense rCrArCrCrArArGrGrArGrGrCrArGrGrArUrUrCdT*dT; antisense rGrArArUrCrCrUrGrCrCrUrCrCrUrUrGrGrUrGdT*dT)
  Mean percent remaining mRNA transcript at siRNA concentration/in cell type 3 nM/HepG2: 31%
  Mean percent remaining mRNA transcript at siRNA concentration/in cell type 30 nM/HepG2: 33%

## AD-9746: PCSK9 siRNA (sense mCrArGrGrArGmCmCrGrGrGrAmCrGmUmCrArGmCdT*dT; antisense rGrCrUrGrArCrGrUrCrCrCrGrGrCrUrCrCrUrGdT*dT)
  Mean percent remaining mRNA transcript at siRNA concentration/in cell type 30 nM/HepG2: 89%

## AD-9533: PCSK9 siRNA (sense rGrArCrCrArCrCrGrGrGrArArArUrCrGrArGrGdT*dT; antisense rCrCrUrCrGrArUrUrUrCrCrCrGrGrUrGrGrUrCdT*dT)
  Mean percent remaining mRNA transcript at siRNA concentration/in cell type 30 nM/HepG2: 100%

## AD-9715: PCSK9 siRNA (sense mCrAmCmCrGmCmUrGmCmCrGrGmCrArAmCmUmUmCdT*dT; antisense rGrArArGrUrUrGrCrCrGrGmCrArGrCrGrGrUrGdT*dT)
  Mean percent remaining mRNA transcript at siRNA concentration/in cell type 30 nM/HepG2: 113%

## AD-9565: PCSK9 siRNA (sense rUrArCrUrCrUrGrCrUrCrUrArUrGrCrCrArGrGdT*dT; antisense rCrCrUrGrGrCrArUrArGrArGrCrArGrArGrUrAdT*dT)
  Mean percent remaining mRNA transcript at siRNA concentration/in cell type 30 nM/HepG2: 74%

## AD-9616: PCSK9 siRNA (sense rArGrCrArCrCrUrGrCrUrUrUrGrUrGrUrCrArCdT*dT; antisense rGrUrGrArCrArCrArArArGrCrArGrGrUrGrCrUdT*dT)
  Mean percent remaining mRNA transcript at siRNA concentration/in cell type 30 nM/HepG2: 84%
100 nM siRNA
  Mean percent remaining mRNA transcript at siRNA concentration/in cell type 100 nM/HepG2: 74%

## AD-9634: PCSK9 siRNA (sense rCrUrCrUrGrUrUrGrCrCrUrUrUrUrUrArCrArGdT*dT; antisense rCrUrGrUrArArArArArGrGrCrArArCrArGrArGdT*dT)
  Mean percent remaining mRNA transcript at siRNA concentration/in cell type 3 nM/HepG2: 30%
  Mean percent remaining mRNA transcript at siRNA concentration/in cell type 30 nM/HepG2: 29%

## AD-9521: PCSK9 siRNA (sense rCrUrCrCrUrArGrArCrArCrCrArGrCrArUrArCdT*dT; antisense rGrUrArUrGrCrUrGrGrUrGrUrCrUrArGrGrArGdT*dT)
  Mean percent remaining mRNA transcript at siRNA concentration/in cell type 30 nM/HepG2: 50%

## AD-9517: PCSK9 siRNA (sense rGrGrArGrGrUrGrUrArUrCrUrCrCrUrArGrArCdT*dT; antisense rGrUrCrUrArGrGrArGrArUrArCrArCrCrUrCrCdT*dT)
  Mean percent remaining mRNA transcript at siRNA concentration/in cell type 30 nM/HepG2: 36%

## AD-9681: PCSK9 siRNA (sense rGmUmCrArGrGrArGmCmCrGrGrGrAmCrGmUmCrAdT*dT; antisense rUrGrArCrGrUrCrCrCrGrGrCrUrCrCrUrGrArCdT*dT)
  Mean percent remaining mRNA transcript at siRNA concentration/in cell type 30 nM/HepG2: 55%

## AD-9671: PCSK9 siRNA (sense rArGmUmCrArArGrGrArGmCrAmUrGrGrArAmUmCdT*dT; antisense rGrArUrUrCmCrArUrGrCrUrCrCrUrUrGrArCrUdT*dT)
  IC50: 2.5 nM
  Mean percent remaining mRNA transcript at siRNA concentration/in cell type 3 nM/HepG2: 33%
  Mean percent remaining mRNA transcript at siRNA concentration/in cell type 30 nM/HepG2: 15%

## AD-9648: PCSK9 siRNA (sense rArArGrGrArGmCrAmUrGrGrArAmUmCmCmCrGrGdT*dT; antisense rCrCrGrGrGrArUrUrCmCrArUrGrCrUrCrCrUrUdT*dT)
  Mean percent remaining mRNA transcript at siRNA concentration/in cell type 30 nM/HepG2: 78%

## AD-9545: PCSK9 siRNA (sense rArGrUrCrArArGrGrArGrCrArUrGrGrArArUrCdT*dT; antisense rGrArUrUrCrCrArUrGrCrUrCrCrUrUrGrArCrUdT*dT)
  Mean percent remaining mRNA transcript at siRNA concentration/in cell type 3 nM/HepG2: 43%
  Mean percent remaining mRNA transcript at siRNA concentration/in cell type 30 nM/HepG2: 31%

## AD-9580: PCSK9 siRNA (sense rCrCrUrGrCrGrCrGrUrGrCrUrCrArArCrUrGrCdT*dT; antisense rGrCrArGrUrUrGrArGrCrArCrGrCrGrCrArGrGdT*dT)
  Mean percent remaining mRNA transcript at siRNA concentration/in cell type 30 nM/HepG2: 112%

## AD-9542: PCSK9 siRNA (sense rArUrCrGrArGrGrGrCrArGrGrGrUrCrArUrGrGdT*dT; antisense rCrCrArUrGrArCrCrCrUrGrCrCrCrUrCrGrArUdT*dT)
  Mean percent remaining mRNA transcript at siRNA concentration/in cell type 30 nM/HepG2: 160%

## AD-9758: PCSK9 siRNA (sense mCrArAmCmUmUmUrGrGmCmCrGmCmUrGmUrGmUrGdT*dT; antisense mCrAmCrAmCrArGrCrGrGrCmCrArArArGrUrUrGdT*dT)
  Mean percent remaining mRNA transcript at siRNA concentration/in cell type 30 nM/HepG2: 96%

## AD-9515: PCSK9 siRNA (sense rGrGrUrArCrCrGrGrGrCrGrGrArUrGrArArUrAdT*dT; antisense rUrArUrUrCrArUrCrCrGrCrCrCrGrGrUrArCrCdT*dT)
  Mean percent remaining mRNA transcript at siRNA concentration/in cell type 30 nM/HepG2: 49%

## AD-9649: PCSK9 siRNA (sense mCrArGmCmCrArGrGrAmUmUmCmCrGmCrGmCrGmCdT*dT; antisense rGrCrGrCrGrCrGrGrArArUrCrCrUrGrGrCrUrGdT*dT)
  Mean percent remaining mRNA transcript at siRNA concentration/in cell type 30 nM/HepG2: 60%

## AD-9547: PCSK9 siRNA (sense rCrUrCrGrCrArGrUrCrArGrArGrCrGrCrArCrUdT*dT; antisense rArGrUrGrCrGrCrUrCrUrGrArCrUrGrCrGrArGdT*dT)
  IC50: 0.2 nM
  Mean percent remaining mRNA transcript at siRNA concentration/in cell type 3 nM/HepG2: 29%
  Mean percent remaining mRNA transcript at siRNA concentration/in cell type 30 nM/HepG2: 31%
